Data published in the supplement of paper PMC10307832.

Tests used:
Test in all cases: relative viability (nuclei count vs DMSO), 5 days (fraction); higher = more cells survive
[1] = compound: CC1=CC(=NN1)NC2=CC(=NC(=N2)/C=C/C3=CC=CC=C3)N4CCN(CC4)C + NC(=O)Nc1cc(-c2cccc(F)c2)sc1C(=O)N[C@H]1CCCNC1 [AZD7762] (partner 0.2 µM)
Outline: (§1)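 For relative viability, nuclei counts in treated wells were divided by those in vehicle wells. Lung cancer cell lines had been pin-tool dosed in 1536-well plates the day after seeding and cultured for 5 days, then fixed and stained in one step (final 0.05% Triton X-100, 1% formaldehyde, 1 ug/ml Hoechst) and imaged at 4×. Doses were one drug alone or a fixed anchor-drug dose plus five library-drug doses (not always all listed) in √10 steps, and values are duplicate-plate medians.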

[2] = compound: COC1=CC(c2cc3ccccc3[nH]2)=N/C1=C\c1[nH]c(C)cc1C [Obatoclax] + Nc1nc2[nH]cc(CCc3ccc(C(=O)N[C@@H](CCC(=O)O)C(=O)O)cc3)c2c(=O)[nH]1 [Pemetrexed] (partner 0.2 µM)
Outline: as §1

[3] = compound: CC(C)C[C@H](NC(=O)[C@H](Cc1ccccc1)NC(=O)c1cnccn1)B(O)O [Bortezomib] + CC(=O)c1c(C)c2cnc(Nc3ccc(N4CCNCC4)cn3)nc2n(C2CCCC2)c1=O [Palbociclib] (partner 0.5 µM)
Outline: as §1

[4] = compound: COC1=CC(c2cc3ccccc3[nH]2)=N/C1=C\c1[nH]c(C)cc1C [Obatoclax] + COc1cc2c(Oc3ccc(NC(=O)C4(C(=O)Nc5ccc(F)cc5)CC4)cc3F)ccnc2cc1OCCCN1CCOCC1 [Foretinib] (partner 0.25 µM)
Outline: as §1

Cell Line | relative viability ([1]; first compound 0.08 µM) | relative viability ([1]; first compound 0.253 µM) | relative viability ([1]; first compound 0.8 µM) | relative viability ([1]; first compound 2.53 µM) | relative viability ([1]; first compound 8 µM) | relative viability ([2]; first compound 0.01 µM) | relative viability ([2]; first compound 0.03162 µM) | relative viability ([2]; first compound 0.1 µM) | relative viability ([2]; first compound 0.3162 µM) | relative viability ([2]; first compound 1 µM) | relative viability ([3]; first compound 0.0002 µM) | relative viability ([3]; first compound 0.000632 µM) | relative viability ([3]; first compound 0.002 µM) | relative viability ([3]; first compound 0.006325 µM) | relative viability ([3]; first compound 0.02 µM) | relative viability ([4]; first compound 0.01 µM) | relative viability ([4]; first compound 0.03162 µM) | relative viability ([4]; first compound 0.1 µM) | relative viability ([4]; first compound 0.3162 µM) | relative viability ([4]; first compound 1 µM)
NCI-H1915 | 0.76 | 0.698 | 0.754 | 0.304 | 0.352 | 0.486 | 0.496 | 0.482 | 0.535 | 0.517 | 0.476 | 0.519 | 0.54 | 0.118 | 0.0404 | 1.07 | 1.09 | 1.06 | 1.06 | 1.07
NCI-H1734 | 0.524 | 0.508 | 0.537 | 0.184 | 0.12 | 0.419 | 0.427 | 0.359 | 0.415 | 0.364 | 0.38 | 0.342 | 0.266 | 0.108 | 0.0922 | 0.81 | 0.863 | 0.9 | 0.785 | 0.628
NCI-H2170 | 0.875 | 0.971 | 0.556 | 0.243 | 0.114 | 0.257 | 0.243 | 0.266 | 0.276 | 0.283 | 0.376 | 0.394 | 0.402 | 0.221 | 0.125 | 1 | 1.02 | 0.996 | 1.02 | 0.975
HCC-15 | 1.1 | 1.46 | 1.25 | 0.875 | 0.34 | 0.215 | 0.234 | 0.215 | 0.225 | 0.228 | 0.622 | 0.769 | 0.689 | 0.104 | 0.0904 | 1.04 | 1.05 | 0.846 | 0.912 | 0.857
HCC-366 | 0.247 | 0.302 | 0.245 | 0.0242 | 0.0179 | 0.152 | 0.172 | 0.114 | 0.223 | 0.309 | 0.352 | 0.319 | 0.372 | 0.0727 | 0.0268 | 0.932 | 0.922 | 0.916 | 0.549 | 0.919
NCI-H1355 | 0.779 | 0.802 | 0.778 | 0.581 | 0.15 | 1.05 | 0.994 | 1.06 | 1 | 0.966 | 0.394 | 0.4 | 0.398 | 0.24 | 0.138 | 1.04 | 0.936 | 0.986 | 0.94 | 0.529
LU99A | 0.298 | 0.376 | 0.252 | 0.14 | 0.0858 | 0.16 | 0.172 | – | 0.183 | 0.18 | 0.464 | 0.364 | 0.405 | 0.261 | 0.164 | 0.875 | 0.792 | 0.774 | 0.619 | 0.714
LCLC-97TM1 | 0.177 | 0.251 | 0.236 | 0.139 | 0.0567 | 0.171 | 0.188 | 0.18 | 0.178 | 0.161 | 0.235 | 0.183 | 0.12 | 0.0721 | 0.0639 | 0.996 | 0.954 | 0.873 | 0.872 | 0.9
LC-2-ad | 0.778 | 0.928 | 0.676 | 0.16 | 0.12 | 0.268 | 0.285 | 0.261 | 0.264 | 0.285 | 0.534 | 0.499 | 0.504 | 0.278 | 0.161 | 0.997 | 0.876 | 0.869 | 0.897 | 0.525
NCI-H1395 | 0.399 | 0.389 | 0.346 | 0.315 | 0.332 | 0.84 | 0.781 | 0.827 | 0.711 | 0.657 | 0.591 | 0.614 | 0.38 | 0.31 | 0.253 | 0.938 | 0.702 | 0.929 | 1.01 | 0.766
HOP-62 | 0.673 | 0.615 | 0.778 | 0.385 | 0.159 | 0.279 | 0.377 | 0.329 | 0.424 | 0.358 | 0.437 | 0.492 | 0.307 | 0.0611 | 0.0516 | 1.16 | 0.933 | 1.11 | 1.04 | 1.06
NCI-H2347 | 0.544 | 0.788 | 0.911 | 0.484 | 0.32 | 0.399 | 0.419 | 0.37 | 0.392 | 0.38 | 0.401 | 0.497 | 0.406 | 0.292 | 0.231 | 1.09 | 0.831 | 0.918 | – | 1.04
NCI-H2087 | 1.27 | 1.4 | 1.39 | 0.703 | 0.176 | 0.623 | 0.675 | 0.688 | 0.674 | 0.473 | 0.218 | 0.246 | 0.156 | 0.0525 | 0.036 | 1.21 | 1.05 | 1.1 | 0.324 | 0.465
EPLC-272H | 0.17 | 0.209 | 0.196 | 0.116 | 0.0909 | 0.324 | 0.387 | 0.422 | 0.327 | 0.263 | 0.307 | 0.29 | 0.304 | 0.111 | 0.0584 | 0.735 | 0.577 | 0.769 | 0.619 | 0.499
LXF-289 | 1.06 | 1.11 | 1.04 | 0.685 | 0.102 | 0.847 | 0.907 | 0.835 | 0.94 | 0.854 | 0.573 | 0.58 | 0.633 | 0.102 | 0.0908 | 0.91 | 0.988 | 1.05 | 0.932 | 1.02
RERF-LC-KJ | 0.854 | 1.05 | 0.915 | 0.651 | 0.232 | 0.466 | 0.461 | 0.448 | 0.457 | 0.45 | 1.18 | 1.03 | 1.05 | 0.224 | 0.19 | 0.823 | 0.883 | 0.862 | 0.792 | 0.844
